Key:
Details in all cases: 48 h
[1] = system: NOMO1; assay: cell viability relative to DMSO control; higher = less cytotoxic
Outline: (§1)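 Leukemia cells (NOMO1 or SEM, 500 cells/well; P12-Ichikawa, 1000 cells/well) were seeded in 5 μl in 1536-well plates after at least four passages of adaptation to each medium. They received library compounds in DMSO by pin dosing, 11 threefold points from 47 μM to 0.79 nM. Luminescence with CellTiter-Glo One was read after 48 h at 37°C. Viability is stated per plate relative to DMSO wells, with cell-free wells as background.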

[2] = system: P12-Ichikawa; assay: as above
Outline: as §1

[3] = system: SEM cells; assay: as above
Outline: as §1

[4] = system: NOMO1; assay: AUC of viability dose-response curve (% viability x log10 dose units); higher = less sensitive
Outline: (§2)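 Medium-adapted leukemia cells in 1536-well plates, at 500 or 1000 cells/well, were incubated for 48 h at 37°C with library compounds in DMSO at 11 threefold doses from 47 μM to 0.79 nM. CellTiter-Glo One luminescence normalised per plate to DMSO and cell-free wells was fitted with a four-parameter log-logistic model over log10 doses. Area under the curve was integrated from this fit by trapezoidal rule, with curves beyond full viability scaled and failed quality-control curves removed.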

[5] = system: P12-Ichikawa; assay: as above
Outline: as §2

[6] = system: SEM cells; assay: as above
Outline: as §2

O=C1NC(=O)[C@@H](c2cn3c4c(cccc24)CCC3)[C@@H]1c1c[nH]c2ccccc12
cell viability [%]
Details | [1] | [2] | [3]
HPLM + 10% dialyzed FBS, 0.000781 µM | 95.9 | 99 | 91.6
HPLM + 10% dialyzed FBS, 0.00234 µM | 99.3 | 96.4 | 98.3
HPLM + 10% dialyzed FBS, 0.00702 µM | 98.2 | 103 | 111
HPLM + 10% dialyzed FBS, 0.0211 µM | 104 | 98.7 | 99.9
HPLM + 10% dialyzed FBS, 0.0632 µM | 107 | 105 | 93.8
HPLM + 10% dialyzed FBS, 0.19 µM | 89.3 | 103 | 75.2
HPLM + 10% dialyzed FBS, 0.569 µM | 89.8 | 93.8 | 96.5
HPLM + 10% dialyzed FBS, 1.71 µM | 62.9 | 56 | 39.9
HPLM + 10% dialyzed FBS, 5.12 µM | 29.7 | 23.3 | 25.5
HPLM + 10% dialyzed FBS, 15.4 µM | 36.4 | 20.7 | 22.3
HPLM + 10% dialyzed FBS, 46.1 µM | 20.6 | 18.5 | 28.9
RPMI 5 mM glucose + 10% FBS, 0.000781 µM | 104 | 93.1 | 117
RPMI 5 mM glucose + 10% FBS, 0.00234 µM | 116 | 111 | 114
RPMI 5 mM glucose + 10% FBS, 0.00702 µM | 115 | 102 | 113
RPMI 5 mM glucose + 10% FBS, 0.0211 µM | 99.5 | 107 | 115
RPMI 5 mM glucose + 10% FBS, 0.0632 µM | 108 | 107 | 124
RPMI 5 mM glucose + 10% FBS, 0.19 µM | 104 | 102 | 76.2
RPMI 5 mM glucose + 10% FBS, 0.569 µM | 110 | 90.9 | 88
RPMI 5 mM glucose + 10% FBS, 1.71 µM | 68.6 | 48.4 | 27.4
RPMI 5 mM glucose + 10% FBS, 5.12 µM | 21.1 | 11.9 | 20.6
RPMI 5 mM glucose + 10% FBS, 15.4 µM | 20.8 | 17.9 | 16.2
RPMI 5 mM glucose + 10% FBS, 46.1 µM | 20.5 | 14.3 | 22.5
RPMI 5 mM glucose + 10% dialyzed FBS, 0.000781 µM | 93.1 | 105 | 90.6
RPMI 5 mM glucose + 10% dialyzed FBS, 0.00234 µM | 91.3 | 105 | 98.5
RPMI 5 mM glucose + 10% dialyzed FBS, 0.00702 µM | 96.2 | 99.9 | 103
RPMI 5 mM glucose + 10% dialyzed FBS, 0.0211 µM | 98.7 | 111 | 84.1
RPMI 5 mM glucose + 10% dialyzed FBS, 0.0632 µM | 106 | 117 | 114
RPMI 5 mM glucose + 10% dialyzed FBS, 0.19 µM | 98.3 | 113 | 83.2
RPMI 5 mM glucose + 10% dialyzed FBS, 0.569 µM | 114 | 109 | 102
RPMI 5 mM glucose + 10% dialyzed FBS, 1.71 µM | 80 | 78 | 39.1
RPMI 5 mM glucose + 10% dialyzed FBS, 5.12 µM | 22.4 | 34.6 | 22.7
RPMI 5 mM glucose + 10% dialyzed FBS, 15.4 µM | 28.5 | 30 | 16.4
RPMI 5 mM glucose + 10% dialyzed FBS, 46.1 µM | 29 | 33.1 | 34.4

AUC of viability dose-response curve
Details | [4] | [5] | [6]
HPLM + 10% dialyzed FBS | 367 | 358 | 345
RPMI 5 mM glucose + 10% FBS | 363 | 344 | 317
RPMI 5 mM glucose + 10% dialyzed FBS | 379 | 380 | 348

C[C@@H]1C[C@H]2[C@@H]3\C=C(C)/C4=C/C5=C(C[C@]4(C)[C@H]3[C@@H](O)C[C@]2(C)[C@@]1(O)C(=O)COC(C)=O)C=N[N]5C6=CC=CC=C6
cell viability [%]
Details | [1] | [2] | [3]
HPLM + 10% dialyzed FBS, 0.000781 µM | 116 | 111 | 134
HPLM + 10% dialyzed FBS, 0.00234 µM | 123 | 107 | 120
HPLM + 10% dialyzed FBS, 0.00702 µM | 114 | 99.2 | 111
HPLM + 10% dialyzed FBS, 0.0211 µM | 113 | 91.8 | 104
HPLM + 10% dialyzed FBS, 0.0632 µM | 123 | 67.8 | 85.4
HPLM + 10% dialyzed FBS, 0.19 µM | 106 | 61.6 | 67.8
HPLM + 10% dialyzed FBS, 0.569 µM | 106 | 58.1 | 66.4
HPLM + 10% dialyzed FBS, 1.71 µM | 106 | 58.7 | 56.8
HPLM + 10% dialyzed FBS, 5.12 µM | 104 | 59.6 | 59.7
HPLM + 10% dialyzed FBS, 15.4 µM | 108 | 51.4 | 59.9
HPLM + 10% dialyzed FBS, 46.1 µM | 90 | 55.8 | 58.8
RPMI 5 mM glucose + 10% FBS, 0.000781 µM | – | 123 | –
RPMI 5 mM glucose + 10% FBS, 0.00234 µM | – | 127 | –
RPMI 5 mM glucose + 10% FBS, 0.00702 µM | – | 98 | –
RPMI 5 mM glucose + 10% FBS, 0.0211 µM | – | 85.1 | –
RPMI 5 mM glucose + 10% FBS, 0.0632 µM | – | 62.3 | –
RPMI 5 mM glucose + 10% FBS, 0.19 µM | – | 54.6 | –
RPMI 5 mM glucose + 10% FBS, 0.569 µM | – | 45.6 | –
RPMI 5 mM glucose + 10% FBS, 1.71 µM | – | 51.5 | –
RPMI 5 mM glucose + 10% FBS, 5.12 µM | – | 49.2 | –
RPMI 5 mM glucose + 10% FBS, 15.4 µM | – | 46.5 | –
RPMI 5 mM glucose + 10% FBS, 46.1 µM | – | 46.9 | –
RPMI 5 mM glucose + 10% dialyzed FBS, 0.000781 µM | 127 | 114 | 143
RPMI 5 mM glucose + 10% dialyzed FBS, 0.00234 µM | 121 | 99.7 | 117
RPMI 5 mM glucose + 10% dialyzed FBS, 0.00702 µM | 110 | 91.7 | 116
RPMI 5 mM glucose + 10% dialyzed FBS, 0.0211 µM | 122 | 72.2 | 97.7
RPMI 5 mM glucose + 10% dialyzed FBS, 0.0632 µM | 125 | 53.3 | 75
RPMI 5 mM glucose + 10% dialyzed FBS, 0.19 µM | 114 | 44.1 | 63.1
RPMI 5 mM glucose + 10% dialyzed FBS, 0.569 µM | 109 | 38 | 52.8
RPMI 5 mM glucose + 10% dialyzed FBS, 1.71 µM | 108 | 39.5 | 54.9
RPMI 5 mM glucose + 10% dialyzed FBS, 5.12 µM | 104 | 38.7 | 46.1
RPMI 5 mM glucose + 10% dialyzed FBS, 15.4 µM | 109 | 38.1 | 43.3
RPMI 5 mM glucose + 10% dialyzed FBS, 46.1 µM | 100 | 32.9 | 35.5

AUC of viability dose-response curve
Details | [4] | [5] | [6]
HPLM + 10% dialyzed FBS | 442 | 323 | 304
RPMI 5 mM glucose + 10% FBS | 411 | 264 | 277
RPMI 5 mM glucose + 10% dialyzed FBS | 449 | 251 | 258

C#Cc1cccc(Nc2ncnc3cc(OCCOC)c(OCCO)cc23)c1
cell viability [%]
Details | [1] | [2] | [3]
HPLM + 10% dialyzed FBS, 0.000781 µM | 135 | 113 | 104
HPLM + 10% dialyzed FBS, 0.00234 µM | 110 | 111 | 113
HPLM + 10% dialyzed FBS, 0.00702 µM | 119 | 113 | 98.3
HPLM + 10% dialyzed FBS, 0.0211 µM | 119 | 109 | 117
HPLM + 10% dialyzed FBS, 0.0632 µM | 125 | 112 | 116
HPLM + 10% dialyzed FBS, 0.19 µM | 116 | 113 | 123
HPLM + 10% dialyzed FBS, 0.569 µM | 100 | 122 | 110
HPLM + 10% dialyzed FBS, 1.71 µM | 68.7 | 104 | 105
HPLM + 10% dialyzed FBS, 5.12 µM | 63.3 | 105 | 96.8
HPLM + 10% dialyzed FBS, 15.4 µM | 69.9 | 91.6 | 69.1
HPLM + 10% dialyzed FBS, 46.1 µM | 28.1 | 46.2 | 20
RPMI 5 mM glucose + 10% FBS, 0.000781 µM | 118 | 118 | –
RPMI 5 mM glucose + 10% FBS, 0.00234 µM | 105 | 101 | –
RPMI 5 mM glucose + 10% FBS, 0.00702 µM | 110 | 107 | –
RPMI 5 mM glucose + 10% FBS, 0.0211 µM | 94.6 | 119 | –
RPMI 5 mM glucose + 10% FBS, 0.0632 µM | 118 | 110 | –
RPMI 5 mM glucose + 10% FBS, 0.19 µM | 104 | 119 | –
RPMI 5 mM glucose + 10% FBS, 0.569 µM | 112 | 111 | –
RPMI 5 mM glucose + 10% FBS, 1.71 µM | 94.2 | 109 | –
RPMI 5 mM glucose + 10% FBS, 5.12 µM | 103 | 98.5 | –
RPMI 5 mM glucose + 10% FBS, 15.4 µM | 93.2 | 95.7 | –
RPMI 5 mM glucose + 10% FBS, 46.1 µM | 33.9 | 49.4 | –
RPMI 5 mM glucose + 10% dialyzed FBS, 0.000781 µM | 118 | 115 | 114
RPMI 5 mM glucose + 10% dialyzed FBS, 0.00234 µM | 123 | 110 | 107
RPMI 5 mM glucose + 10% dialyzed FBS, 0.00702 µM | 98.2 | 118 | 118
RPMI 5 mM glucose + 10% dialyzed FBS, 0.0211 µM | 112 | 110 | 114
RPMI 5 mM glucose + 10% dialyzed FBS, 0.0632 µM | 104 | 113 | 116
RPMI 5 mM glucose + 10% dialyzed FBS, 0.19 µM | 112 | 108 | 103
RPMI 5 mM glucose + 10% dialyzed FBS, 0.569 µM | 118 | 106 | 105
RPMI 5 mM glucose + 10% dialyzed FBS, 1.71 µM | 92.2 | 111 | 88.4
RPMI 5 mM glucose + 10% dialyzed FBS, 5.12 µM | 104 | 104 | 94.9
RPMI 5 mM glucose + 10% dialyzed FBS, 15.4 µM | 94.7 | 91.5 | 62.5
RPMI 5 mM glucose + 10% dialyzed FBS, 46.1 µM | 41.7 | 43.3 | 14.5

AUC of viability dose-response curve
Details | [4] | [5] | [6]
HPLM + 10% dialyzed FBS | 372 | 451 | 431
RPMI 5 mM glucose + 10% FBS | 455 | 453 | 400
RPMI 5 mM glucose + 10% dialyzed FBS | 455 | 451 | 417
